Measured values reported in patent US20040156869A1, “2-substituted quinazolin-4-ylamine analogues” (Neurogen Corporation, priority 2002, published 2004).

Each compound was assayed against human capsaicin receptor (VR1) (Homo sapiens, UniProt Q8NER1) (assay: Capsaicin receptor binding assay ([3H]RTX competition, VR1-transfected HEK293 membranes)). Details: not given.
Sequence of human capsaicin receptor (VR1) (Q8NER1 whole entry): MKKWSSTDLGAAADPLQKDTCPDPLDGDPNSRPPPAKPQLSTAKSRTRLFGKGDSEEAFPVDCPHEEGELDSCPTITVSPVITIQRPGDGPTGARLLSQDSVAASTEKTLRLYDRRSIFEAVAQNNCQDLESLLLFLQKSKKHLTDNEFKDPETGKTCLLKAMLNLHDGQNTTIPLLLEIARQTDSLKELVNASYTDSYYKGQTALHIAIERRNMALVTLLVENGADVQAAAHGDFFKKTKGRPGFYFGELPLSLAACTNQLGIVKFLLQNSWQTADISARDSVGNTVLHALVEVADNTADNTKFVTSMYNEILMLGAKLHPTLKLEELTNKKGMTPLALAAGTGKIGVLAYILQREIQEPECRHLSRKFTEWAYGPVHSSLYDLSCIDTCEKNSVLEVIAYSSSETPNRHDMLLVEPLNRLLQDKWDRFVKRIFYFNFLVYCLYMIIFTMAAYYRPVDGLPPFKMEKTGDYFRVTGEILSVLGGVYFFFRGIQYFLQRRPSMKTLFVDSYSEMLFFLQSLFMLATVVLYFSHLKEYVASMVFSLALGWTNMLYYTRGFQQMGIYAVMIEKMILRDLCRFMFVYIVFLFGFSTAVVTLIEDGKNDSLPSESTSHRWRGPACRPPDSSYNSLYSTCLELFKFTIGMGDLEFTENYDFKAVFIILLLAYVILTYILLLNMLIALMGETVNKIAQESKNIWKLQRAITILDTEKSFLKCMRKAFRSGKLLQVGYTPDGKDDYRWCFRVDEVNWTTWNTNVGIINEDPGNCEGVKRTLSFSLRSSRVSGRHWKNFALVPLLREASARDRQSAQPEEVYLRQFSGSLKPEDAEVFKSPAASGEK

Compound	Ki [µM]
O=S1(=O)CCCCN1Cc1nc(Nc2ccc(C(F)(F)F)cc2)c2ccc(-c3ncccc3C(F)(F)F)cc2n1 [Compound 756, [2-(1,1-Dioxo-1λ^6-[1,2]thiazinan-2-ylmethyl)-7-(3-trifluoromethyl-pyridin-2-yl)-quinazolin-4-yl]-(4-trifluorornethyl-phenyl)-amine]	< 1
C[C@@H]1CN(Cc2nc(Nc3ccc(C(C)(C)C)cc3)c3ccc(-c4ncccc4C(F)(F)F)nc3n2)C[C@H](C)O1 [Compound 757, (4-tert-Butyl-phenyl)-[2-(2,6-dimethyl-morpholin-4-ylmethyl)-7-(3-trifluoromethyl-pyridin-2-yl)-pyrido[2,3-d]pyrimidin-4-yl]-amine (cis)]	< 1
CC(C)(C)c1ccc(Nc2nc(CN3CCC[C@H]3C(=O)O)nc3nc(-c4ncccc4C(F)(F)F)ccc23)cc1 [Compound 758, (S)-1-[4-(4-tert-Butyl-phenylamino)-7-(3-trifluoromethyl-pyridin-2-yl)-pyrido[2,3-d]pyrimidin-2-ylmethyl]-pyrrolidine-2-carboxylic acid]	< 1
CC(C)CCNC(=O)c1nc(Nc2ccc(C(F)(F)F)cc2)c2ccc(-c3ncccc3C(F)(F)F)cc2n1 [Compound 761, 4-(4-Trifluoromethyl-phenylamino)-7-(3-trifluoromethyl-pyridin-2-yl)-quinazoline-2-carboxylic acid (3-methyl-butyl)-amide]	< 1
COCCNC(=O)c1nc(Nc2ccc(C(F)(F)F)cc2)c2ccc(-c3ncccc3C(F)(F)F)cc2n1 [Compound 762, 4-(4-Trifluoromethyl-phenylamino)-7-(3-trifluoromethyl-pyridin-2-yl)-quinazoline-2-carboxylic acid (2-methoxy-ethyl)-amide]	< 1
O=C(NCCN1CCCC1)c1nc(Nc2ccc(C(F)(F)F)cc2)c2ccc(-c3ncccc3C(F)(F)F)cc2n1 [Compound 763, 4-(4-Trifluoromethyl-phenylamino)-7-(3-trifluoromethyl-pyridin-2-yl)-quinazoline-2-carboxylic acid (2-pyrrolidin-1-yl-ethyl)-amide]	< 1
O=C(O)CCNC(=O)c1nc(Nc2ccc(C(F)(F)F)cc2)c2ccc(-c3ncccc3C(F)(F)F)nc2n1 [Compound 765, 3-{[4-(4-Trifluoromethyl-phenylamino)-7-(3-trifluoromethyl-pyridin-2-yl)-pyrido[2,3-d]pyrimidine-2-carbonyl]-amino}-propionic acid]	< 1
O=C(O)[C@@H]1CCCN1C(=O)c1nc(Nc2ccc(C(F)(F)F)cc2)c2ccc(-c3ncccc3C(F)(F)F)nc2n1 [Compound 768, (S)-1-[4-(4-Trifluoromethyl-phenylamino)-7-(3-trifluoromethyl-pyridin-2-yl)-pyrido[2,3-d]pyrimidine-2-carbonyl]-pyrrolidine-2-carboxylic acid]	< 1
CC(C)c1ccc(Nc2nc(C3CCN(C)CC3)nc3nc(-c4ncccc4Cl)ccc23)cc1 [Compound 770, [7-(3-Chloro-pyridin-2-yl)-2-(1-methyl-piperidin-4-yl)-pyrido[2,3-d]pyrimidin-4-yl]-(4-isopropyl-phenyl)-amine]	< 1
CN1CCC(c2nc(Nc3ccc(C(F)(F)F)cc3)c3ccc(-c4ncccc4Cl)nc3n2)CC1 [Compound 771, [7-(3-Chloro-pyridin-2-yl)-2-(1-methyl-piperidin-4-yl)-pyrido[2,3-d]pyrimidin-4-yl]-(4-trifluoromethyl-phenyl)-amine]	< 1
C[C@@H]1CN(Cc2cc(Nc3ccc(C(F)(F)F)cc3)c3ccc(-c4ncccc4C(F)(F)F)nc3n2)C[C@H](C)O1 [Compound 773, [2-(2,6-Dimethyl-morpholin-4-ylmethyl)-7-(3-trifluoromethyl-pyridin-2-yl)-[1,8]naphthyridin-4-yl]-(4-trifluoromethyl-phenyl)-amine (cis)]	< 1
COCCN(CCOC)Cc1cc(Nc2ccc(C(F)(F)F)cc2)c2ccc(-c3ncccc3C(F)(F)F)nc2n1 [Compound 775, [2-{[Bis-(2-methoxy-ethyl)-amino]-methyl}-7-(3-trifluoromethyl-pyridin-2-yl)-[1,8]naphthyridin-4-yl]-(4-trifluoromethyl-phenyl)-amine]	< 1
FC(F)(F)c1ccc(Nc2cc(CN3CCCCC3)nc3nc(-c4ncccc4C(F)(F)F)ccc23)cc1 [Compound 799, [2-Piperidin-1-ylmethyl-7-(3-trifluoromethyl-pyridin-2-yl)-[1,8]naphthyridin-4-yl]-(4-trifluoromethyl-phenyl)-amine]	< 1
FC(F)(F)c1ccc(Nc2cc(CN3CCOCC3)nc3nc(-c4ncccc4C(F)(F)F)ccc23)cc1 [Compound 800]	< 1
FC(F)(F)c1ccc(Nc2cc(CN3CCSCC3)nc3nc(-c4ncccc4C(F)(F)F)ccc23)cc1 [Compound 802, [2-Thiomorpholin-4-ylmethyl-7-(3-trifluoromethyl-pyridin-2-yl)-[1,8]naphthyridin-4-yl]-(4-trifluoromethyl-phenyl)-amine]	< 1
CC1CCCCN1Cc1cc(Nc2ccc(C(F)(F)F)cc2)c2ccc(-c3ncccc3C(F)(F)F)nc2n1 (stereo not drawn) [Compound 810, [2-(2-Methyl-piperidin-1-ylmethyl)-7-(3-trifluoromethyl-pyridin-2-yl)-[1,8]naphthyridin-4-yl]-(4-trifluoromethyl-phenyl)-amine]	< 1
CCN(Cc1cc(Nc2ccc(C(F)(F)F)cc2)c2ccc(-c3ncccc3C(F)(F)F)nc2n1)C1CCCCC1 [Compound 813, [2-[(Cyclohexyl-ethyl-amino)-methyl]-7-(3-trifluoromethyl-pyridin-2-yl)-[1,8]naphthyridin-4-yl]-(4-trifluoromethyl-phenyl)-amine]	< 1

The next lines start with the values.

Ki [µM]	Compound
< 1	O=C(c1nc(Nc2ccc(C(F)(F)F)cc2)c2ccc(-c3ncccc3C(F)(F)F)cc2n1)N1CCCCC1 [Compound 759, Piperidin-1-yl-[4-(4-trifluoromethyl-phenylamino)-7-(3-trifluoromethyl-pyridin-2-yl)-quinazolin-2-yl]I-methanone]
< 1	O=C(O)CNC(=O)c1nc(Nc2ccc(C(F)(F)F)cc2)c2ccc(-c3ncccc3C(F)(F)F)nc2n1 [Compound 764, {[4-(4-Trifluoromethyl-phenylamino)-7-(3-trifluoromethyl-pyridrn-2-yl)-pyrido[2,3-d]pyrimidine-2-carbonyl]-amino}-acetic acid]
< 1	O=C(O)CCCNC(=O)c1nc(Nc2ccc(C(F)(F)F)cc2)c2ccc(-c3ncccc3C(F)(F)F)nc2n1 [Compound 766, 4-{[4-(4-Trifluoromethyl-phenylamino)-7-(3-trifluoromethyl-pyridin-2-yl)-pyrido[2,3-d]pyrimidine-2-carbonyl]-amino}-butyric acid]
< 1	O=C(O)C1CCN(C(=O)c2nc(Nc3ccc(C(F)(F)F)cc3)c3ccc(-c4ncccc4C(F)(F)F)nc3n2)CC1 [Compound 767, 1-[4-(4-Trifluoromethyl-phenylamino)-7-(3-trifluoromethyl-pyridin-2-yl)-pyrido[2,3-d]pyrimidine-2-carbonyl]-piperidine-4-carboxylic acid]
< 1	CN1CCC(c2nc(Nc3ccc(C(C)(C)C)cc3)c3ccc(-c4ncccc4Cl)nc3n2)CC1 [Compound 769, (4-tert-Butyl-phenyl)-[7-(3-chloro-pyridin-2-yl)-2-(1-methyl-piperidin-4-yl)-pyrido[2,3-d]pyrimidin-4-yl]-amine]
< 1	CC1CCCN1Cc1cc(Nc2ccc(C(F)(F)F)cc2)c2ccc(-c3ncccc3C(F)(F)F)nc2n1 (stereo not drawn) [Compound 774, [2-(2-Methyl-pyrrolidin-1-ylmethyl)-7-(3-trifluoromethyl-pyridin-2-yl)-[1,8]naphthyridin-4-yl]-(4-trifluoromethyl-phenyl)-amine]
< 1	CCC1CCCCN1Cc1cc(Nc2ccc(C(F)(F)F)cc2)c2ccc(-c3ncccc3C(F)(F)F)nc2n1 (stereo not drawn) [Compound 812, [2-(2-Ethyl-piperidin-1-ylmethyl)-7-(3-trifluoromethyl-pyridin-2-yl)-[1,8]naphthyridin-4-yl]-(4-trifluoromethyl-phenyl)-amine]
< 1	FC(F)(F)c1ccc(Nc2cc(CN3CC=CCC3)nc3nc(-c4ncccc4C(F)(F)F)ccc23)cc1 [Compound 816, [2-(3,6-Dihydro-2H-pyridin-1-ylmethyl)-7-(3-trifluoromethyl-pyridin-2-yl)-[1,8]naphthyridin-4-yl]-(4-trifluoromethyl-phenyl)-amine]
< 1	CN1CCN(Cc2cc(Nc3ccc(C(F)(F)F)cc3)c3ccc(-c4ncccc4C(F)(F)F)nc3n2)CC1 [Compound 817, [2-(4-Methyl-piperazin-1-ylmethyl)-7-(3-trifluoromethyl-pyridin-2-yl)-[1,8]naphthyridin-4-yl]-(4-trifluoromethyl-phenyl)-amine]

Same assay, conditions: Table III; capsaicin receptor binding

Ki [µM]	Compound
< 1	[2-(2,6-Dimethyl- morpholin-4-ylmethyl)-7- (3-trifluoromethyl-pyridin- 2-yl)-pyrido[3,2- d]pyrimidin-4-yl]-(4- methanesulfonyl-phenyl)- amine (cis) [Compound 584]
